In patent EP2518139A1, “Use of indirubin derivatives for producing pluripotent stem cells” (Universitätsklinikum Jena, priority 2011, dated 2012):

Key:
Smad1/5/8 [1] = assay: Immunoblot of p- and pan-Smad1/5/8 in C2C12; format: cell-based, mouse; conditions: C2C12, BMP2 (100ng/mL), 24h, E738 0,5µM, 1µM and 5µM
Experimental: Cell culture: HeLa and C2C12 were cultured in DMEM containing 10% FCS and 1 % PS. HFF was cultured in DMEM containing 15% FCS and 1 %PS. NIH 3T3 was cultured in DMEM containing 10% NCS and 1% PS. The cells were maintained unter 5% CO2 at 37°C in a humidified atmosphere. After 24h preincuabtion in serum-free medium, the cells were treated with various compounds and proteins as indicated in context. Transfection of siRNA oligonuleotide against Smurf1 was reported by Zhu et al (Zhu et al., nature 2006) and synthesized by riboxx and performed using riboxx®FECT reagent according to the manufacturer's instructions. 24h after transfection, the cells were treated with BMP (100ng/mL) and Compound as indicated before lysis.
Western blot:: Cell extracts were homogenized in Urea-Lysis buffer (1mM EDTA,0.5% Triton X-100), 5mM NaF, 6M Urea, 1mM Na3VO4, 10µg/mL Pepstatin, 100µM PMSF and 3µg/mL Aprotinin in PBS). Enhanced chemiluminescence (ECL) Western blot analysis was performed. 20-40µg of total protein was resolved on 10% SDS-PAGE gels and immunoblotted with specific antibodies. Primary antibodies were incubated at a 1:1,000 dilution in TBS (pH 7.5) with 0.1% Tween-20 and 5% BSA/nonfat milk with gentle agitation overnight at 4°C. The proper secondary antibodies were incubated in TBS (pH 7.5) with 5% BSA/nonfat milk and 0.1 % Tween-20 at a 1:5,000 dilution for 1 h at room temperature. […]

Smad1/5/8 [2] = assay: Immunostaining of pan-Smad1/5/8 in C2C12; format: cell-based, mouse; conditions: C2C12, BMP2 (100ng/mL), 12h
Experimental: Immunostaining: The serum-depleted C2C12 cells were coinbubated with BMP2 (100ng/mL) and E738 at various concentration as indicated for 12h. Cells were fixed in 4% PFA and immunostained with Smad1/5/8 antibody (1:100) and DAPI as described previously.
To access the generality of the E738 effect on BMP/Smad, we treated C2C12, HFF and NIH 3T3 with various concentrations of E738 and probed cell extracts with p- and pan-Smad1/5/8 antibodies. […] In addition, E738 at 0.5µM concentration is already sufficient to reduce Smad1/5/8 in HFF and NIH3T3 implicating that fibroblast might be more sensitive to the IRDs treatment.

JAK2 = biological target: T1, JAK2 (Homo sapiens, UniProt O60674); assay: Kinase profiling assay (ProQinase); format: biochemical; conditions: 1µM E738, 1µM ATP, recombinant protein kinase
T1 construct: purchased ProQinase
Experimental: (§1) Kinase Assay: The Kinase profiling assay was performed by ProQinase as previously described (Cheng et al.201 0).
(§2) Because E738 initially was designed as a protein kinase inhibitor, we asked if E738 induced dephoshorylation and degradation are caused by certain protein kinases. Thus we exploited protein kinase profiling containing several Smad-relative protein kinases like CDKs and GSK3ß to overview the inhibitory effect of E738 in vitro. The residual activities of kinases were measured by using recombinant protein kinases and proper substrates after treatment with 1µM E738 in the presence of 1µM ATP as our previously described. […] However the mechanism was still remained to elucidate. Recently, researchers argued that Raf kinase inhibitor may induce the activation of MAPKs in vitro and in vivo leading to the failure of cancer therapy (Hatzivassiliou nature 2010 464 431-436, Heidol cell 2010 140 209-221, Murphy PNAS 2010 107 9 4299-4304). We assumed that the indirubin activated MAPKs might be due to its inhibition against Raf kinase. Furthermore, the Lin et. al. described Stat3 inhibitor could disrupt TGFß signaling (Lin oncogene 200928 961-972). Therefore we included Raf and Stat3-relative protein kinases, like Jak, Kit and Src, in this small screening.

KIT = biological target: T2, KIT (Homo sapiens, UniProt P10721); assay: Kinase profiling assay (ProQinase); format: biochemical; conditions: 1µM E738, 1µM ATP, recombinant protein kinase
T2 construct: purchased ProQinase
Experimental: as §1, §2

Src = biological target: T3, Src (Homo sapiens, UniProt P12931); assay: Kinase profiling assay (ProQinase); format: biochemical; conditions: 1µM E738, 1µM ATP, recombinant protein kinase
T3 construct: purchased ProQinase
Experimental: as §1, §2

b-Raf = biological target: T4, b-Raf (Homo sapiens, UniProt P15056); assay: Kinase profiling assay (ProQinase); format: biochemical; conditions: 1µM E738, 1µM ATP, recombinant protein kinase
T4 construct: purchased ProQinase
Experimental: as §1, §2

T3 sequence (P12931 whole entry): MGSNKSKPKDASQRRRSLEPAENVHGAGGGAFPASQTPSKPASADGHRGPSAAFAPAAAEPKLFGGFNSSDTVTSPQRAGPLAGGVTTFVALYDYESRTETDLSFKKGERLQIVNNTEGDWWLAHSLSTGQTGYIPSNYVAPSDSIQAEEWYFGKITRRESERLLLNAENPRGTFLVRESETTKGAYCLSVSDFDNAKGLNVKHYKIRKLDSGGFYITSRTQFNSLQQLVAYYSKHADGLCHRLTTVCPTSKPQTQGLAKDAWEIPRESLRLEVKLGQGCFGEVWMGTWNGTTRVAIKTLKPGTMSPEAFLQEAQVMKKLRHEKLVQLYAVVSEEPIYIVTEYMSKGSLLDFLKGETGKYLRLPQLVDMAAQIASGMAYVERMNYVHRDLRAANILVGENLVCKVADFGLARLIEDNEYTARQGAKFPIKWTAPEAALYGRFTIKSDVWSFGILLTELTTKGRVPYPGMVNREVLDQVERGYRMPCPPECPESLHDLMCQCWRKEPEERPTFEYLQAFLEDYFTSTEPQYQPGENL
T4 sequence (P15056 whole entry): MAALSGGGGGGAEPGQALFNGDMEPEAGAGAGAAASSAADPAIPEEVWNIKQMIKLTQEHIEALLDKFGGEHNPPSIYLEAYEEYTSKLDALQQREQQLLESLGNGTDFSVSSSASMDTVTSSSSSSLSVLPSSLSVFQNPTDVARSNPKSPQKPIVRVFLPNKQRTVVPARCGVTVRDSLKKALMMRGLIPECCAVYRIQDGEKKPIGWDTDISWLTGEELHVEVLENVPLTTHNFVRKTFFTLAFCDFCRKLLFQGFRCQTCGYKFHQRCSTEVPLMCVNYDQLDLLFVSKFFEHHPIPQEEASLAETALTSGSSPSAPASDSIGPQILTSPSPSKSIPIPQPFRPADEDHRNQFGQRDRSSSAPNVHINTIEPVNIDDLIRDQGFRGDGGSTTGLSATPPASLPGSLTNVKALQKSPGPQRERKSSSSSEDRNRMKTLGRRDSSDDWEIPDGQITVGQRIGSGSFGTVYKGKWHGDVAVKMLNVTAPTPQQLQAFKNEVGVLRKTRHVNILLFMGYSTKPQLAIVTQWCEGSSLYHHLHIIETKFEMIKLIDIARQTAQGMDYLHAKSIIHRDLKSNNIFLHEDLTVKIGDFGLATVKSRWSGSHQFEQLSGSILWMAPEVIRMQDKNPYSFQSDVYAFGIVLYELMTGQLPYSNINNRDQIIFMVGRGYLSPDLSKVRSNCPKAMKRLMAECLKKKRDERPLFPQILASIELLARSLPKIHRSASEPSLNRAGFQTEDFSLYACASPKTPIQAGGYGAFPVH
T1 sequence (O60674 whole entry): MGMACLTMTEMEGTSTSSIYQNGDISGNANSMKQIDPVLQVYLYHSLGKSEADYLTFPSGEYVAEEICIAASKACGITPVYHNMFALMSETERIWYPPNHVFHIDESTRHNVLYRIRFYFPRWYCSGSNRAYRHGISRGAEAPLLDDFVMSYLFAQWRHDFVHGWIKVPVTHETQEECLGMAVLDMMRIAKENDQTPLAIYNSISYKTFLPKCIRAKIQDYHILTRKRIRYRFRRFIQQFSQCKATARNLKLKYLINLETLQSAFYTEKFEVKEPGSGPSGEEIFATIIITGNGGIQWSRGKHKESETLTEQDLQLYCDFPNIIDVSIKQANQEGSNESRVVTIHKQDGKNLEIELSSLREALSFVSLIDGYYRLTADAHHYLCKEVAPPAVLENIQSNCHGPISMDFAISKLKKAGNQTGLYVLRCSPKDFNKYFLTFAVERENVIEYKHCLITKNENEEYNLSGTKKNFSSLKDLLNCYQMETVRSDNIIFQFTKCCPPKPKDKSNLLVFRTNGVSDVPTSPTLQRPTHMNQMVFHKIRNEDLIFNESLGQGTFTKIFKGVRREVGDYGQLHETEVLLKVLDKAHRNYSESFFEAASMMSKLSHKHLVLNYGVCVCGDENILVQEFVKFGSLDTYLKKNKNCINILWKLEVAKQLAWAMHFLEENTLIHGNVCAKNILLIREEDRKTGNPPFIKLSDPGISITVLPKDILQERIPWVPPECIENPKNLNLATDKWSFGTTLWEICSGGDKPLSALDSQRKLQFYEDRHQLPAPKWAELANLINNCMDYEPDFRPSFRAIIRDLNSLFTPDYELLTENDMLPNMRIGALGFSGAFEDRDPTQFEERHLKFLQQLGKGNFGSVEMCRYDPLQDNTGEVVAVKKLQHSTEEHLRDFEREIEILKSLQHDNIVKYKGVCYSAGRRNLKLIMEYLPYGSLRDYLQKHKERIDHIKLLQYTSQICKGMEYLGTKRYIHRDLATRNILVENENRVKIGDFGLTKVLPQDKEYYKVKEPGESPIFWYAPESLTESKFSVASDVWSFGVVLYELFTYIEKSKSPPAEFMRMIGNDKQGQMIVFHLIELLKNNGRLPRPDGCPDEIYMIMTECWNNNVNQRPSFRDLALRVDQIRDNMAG
T2 sequence (P10721 26-976): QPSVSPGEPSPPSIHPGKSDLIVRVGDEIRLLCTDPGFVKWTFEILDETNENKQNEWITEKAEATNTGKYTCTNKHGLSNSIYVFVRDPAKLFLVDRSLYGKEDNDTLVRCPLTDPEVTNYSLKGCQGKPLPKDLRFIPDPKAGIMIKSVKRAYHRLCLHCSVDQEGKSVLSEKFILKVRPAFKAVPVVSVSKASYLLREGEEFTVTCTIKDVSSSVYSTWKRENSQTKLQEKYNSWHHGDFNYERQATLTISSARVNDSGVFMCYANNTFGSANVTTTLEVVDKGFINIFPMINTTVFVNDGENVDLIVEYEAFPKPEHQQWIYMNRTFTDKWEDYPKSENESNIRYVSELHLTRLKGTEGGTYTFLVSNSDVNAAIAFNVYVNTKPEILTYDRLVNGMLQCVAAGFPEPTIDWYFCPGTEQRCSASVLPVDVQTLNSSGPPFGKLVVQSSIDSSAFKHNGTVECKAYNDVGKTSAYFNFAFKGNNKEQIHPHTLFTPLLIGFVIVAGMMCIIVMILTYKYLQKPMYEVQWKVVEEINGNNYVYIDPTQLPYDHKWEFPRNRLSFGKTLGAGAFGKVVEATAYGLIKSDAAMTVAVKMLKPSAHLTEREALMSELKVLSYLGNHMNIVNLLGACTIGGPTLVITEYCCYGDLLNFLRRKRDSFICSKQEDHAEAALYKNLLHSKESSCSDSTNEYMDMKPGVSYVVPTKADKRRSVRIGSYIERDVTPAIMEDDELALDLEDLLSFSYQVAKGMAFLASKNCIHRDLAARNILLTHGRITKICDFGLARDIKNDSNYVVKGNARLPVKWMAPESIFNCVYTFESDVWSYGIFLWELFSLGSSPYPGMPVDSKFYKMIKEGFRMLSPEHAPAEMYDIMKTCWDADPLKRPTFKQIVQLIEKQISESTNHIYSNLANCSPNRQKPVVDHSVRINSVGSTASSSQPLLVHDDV

## COc1ccc2c(c1)C(=C1Nc3ccccc3C1=NOCC(O)CO)C(=O)N2 (stereo not drawn) [E738]
Smad1/5/8 [1]
  p- and pan-Smad1/5/8: decline of both
Smad1/5/8 [2]
  pan Smad1/5/8 by immunostaining: depletion of pan Smad1/5/8 as early as 12h treatment
JAK2
  inhibition of JAK2: generally inhibited
KIT
  inhibition of KIT: generally inhibited
Src
  inhibition of Src: generally inhibited
b-Raf
  blocked activity of b-Raf: 57%
